# Changes are numbered by the printed parent chain. Active and inactive are the calls of the source. The rule behind the calls is not given here.
# Experiments:
# Assay type in all cases: cell-based
# [1] = biological target: T1, Short transient receptor potential channel 5 (Homo sapiens) (UniProt Q9UL62); assay: Induction of S-nitrosylation of TRPC5 in HEK cells assessed as increase in Ca2+ level from extracellular space at 30 uM; details: HEK293
# T1 sequence (whole entry): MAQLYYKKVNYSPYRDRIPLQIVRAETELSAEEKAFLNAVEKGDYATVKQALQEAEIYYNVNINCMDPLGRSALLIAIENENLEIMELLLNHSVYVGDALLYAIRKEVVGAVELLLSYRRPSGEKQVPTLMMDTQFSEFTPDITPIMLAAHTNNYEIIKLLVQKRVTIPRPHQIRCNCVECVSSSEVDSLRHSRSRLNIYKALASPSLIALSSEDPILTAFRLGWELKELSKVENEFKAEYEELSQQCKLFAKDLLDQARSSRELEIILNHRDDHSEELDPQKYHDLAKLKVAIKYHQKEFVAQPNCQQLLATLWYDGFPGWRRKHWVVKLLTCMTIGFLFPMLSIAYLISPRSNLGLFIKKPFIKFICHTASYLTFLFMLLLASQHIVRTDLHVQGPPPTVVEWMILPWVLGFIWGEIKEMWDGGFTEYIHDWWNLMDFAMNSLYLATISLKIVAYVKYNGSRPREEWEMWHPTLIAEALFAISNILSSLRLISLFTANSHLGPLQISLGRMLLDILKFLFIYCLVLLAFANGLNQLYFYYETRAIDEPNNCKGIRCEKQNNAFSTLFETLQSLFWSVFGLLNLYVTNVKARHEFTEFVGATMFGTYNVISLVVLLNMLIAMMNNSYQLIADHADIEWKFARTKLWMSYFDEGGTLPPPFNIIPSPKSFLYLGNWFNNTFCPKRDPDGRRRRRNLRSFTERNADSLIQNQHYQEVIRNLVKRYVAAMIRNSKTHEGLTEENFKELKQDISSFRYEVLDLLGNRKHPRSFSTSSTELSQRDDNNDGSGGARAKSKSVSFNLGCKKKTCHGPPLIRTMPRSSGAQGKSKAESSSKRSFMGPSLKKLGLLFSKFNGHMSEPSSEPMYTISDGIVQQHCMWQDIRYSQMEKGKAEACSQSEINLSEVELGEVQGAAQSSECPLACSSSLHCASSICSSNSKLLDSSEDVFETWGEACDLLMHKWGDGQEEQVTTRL
# HEK293 = assay: Activation of rat TRPV1 Cys621 mutant expressed in HEK cells assessed as increase in Ca2+ level from extracellular space at 10 uM
# [2] = system: T2, Short transient receptor potential channel 5 (Homo sapiens), Q9UL62 [C553S]; assay: Decrease in TRPC5 C553S mutant S-nitrosylation in HEK cells assessed as inhibition of incorporation of DTNB-2Bio at 300 uM relative to control; details: HEK293
# T2 sequence (whole entry): T1 sequence (whole entry) with C553S
# [3] = biological target: T1, Short transient receptor potential channel 5 (Homo sapiens); assay: Induction of S-nitrosylation of TRPC5 in HEK cells assessed as inhibition of incorporation of DTNB-2Bio at 5 mM; details: HEK293
# [4] = biological target: T1, Short transient receptor potential channel 5 (Homo sapiens); assay: Induction of S-nitrosylation of TRPC5 in HEK cells assessed as increase in Ca2+ level from extracellular space at 10 uM; details: HEK293
Activity [1],Activity [2],Activity [3],Activity [4],Structure (SMILES),Activity (HEK293)
Active,,,,O=[N+]([O-])c1ccc(SSc2ccc([N+](=O)[O-])cn2)nc1,inactive
,Active,Active,Active,CC(=O)N[C@@H](C(=O)O)C(C)(C)SN=O (racemic),

# From ChEMBL document CHEMBL1250444, “Nitric oxide activates TRP channels by cysteine S-nitrosylation” (Nat Chem Biol, 2006)
